According to patent US4048333A (priority 1971, dated 1977):

How the values were obtained:
poliovirus 1 [1] = assay type: cell-based, poliovirus 1 (FL cells); settings: maximum subtoxic concentration; for Results from one-step virus growth cycle experiments, PFU/ml: control 1.2×10^9; for Results from one-step virus growth cycle experiments, % of inhibition: virus yield vs control
pregnant female rats = experiment: teratogenic effect in pregnant female rats; assay type: in vivo; settings: intraperitoneal, daily doses of 100 mg/kg
[2] = test system: coxsackievirus B1, B3, A6 and A7; experiment: animal or person; assay type: in vivo, newborn mice; settings: for ED50: Enterovirus B, B1, in Mus musculus, sc, read-out: ED50 dose; for antiviral activity on experimental Coxsackie infections (in words): mouse, in vivo; for retardation of the course of the infection: newborn mice, 3-10 LD50, subcutaneous once daily
rats = experiment: subacute toxicity for rats; assay type: in vivo; settings: intraperitoneal, 200 mg/kg daily for 30 days
echovirus 19 = experiment: one-step virus growth cycle experiments, echovirus 19; assay type: cell-based, echovirus 19 (FL cells); settings: maximum subtoxic concentration; for Results from the one-step virus growth cycle experiments, % of inhibition: virus yield vs control; for Results from the one-step virus growth cycle experiments, PFU/ml: control 2.6×10^9
[3] = acute toxicity for rats (LD50, Pershin method); settings: rat, in vivo, ip, intraperitoneal
[4] = acute toxicity for mice (LD50, Pershin method); settings: mouse, in vivo; for LD50: mice, Pershin method
poliovirus 1 [5] = assay type: cell-based, poliovirus 1 (FL cells); settings: FL cells, 48 hour incubation
coxsackievirus B1 = assay type: cell-based, coxsackievirus B1 (FL cells)
FMD virus type C = assay type: cell-based, FMD virus type C (calf kidney primary cultures)
[6] = acute toxicity / selectivity index, species not stated; settings: in vivo; species and route not given
FMD = test system: FMD; parameters: species or system newborn mice; settings: mouse, in vivo
FMD virus = test system: FMD virus; parameters: species or system guinea pigs; settings: guinea pig, in vivo

SMILES: S=C(Nc1ccccc1)Nc1cnc2ccccc2c1 [Example 1]
- Results from one-step virus growth cycle experiments, PFU/ml (poliovirus 1 [1]): 3.3×10^8 PFU/ml
- Results from one-step virus growth cycle experiments, % of inhibition (poliovirus 1 [1]): 67.00%

SMILES: S=C(Nc1ccccc1)Nc1cccc2cccnc12 [Example 2]
- Results from one-step virus growth cycle experiments, PFU/ml (poliovirus 1 [1]): 5.2×10^8 PFU/ml
- Results from one-step virus growth cycle experiments, % of inhibition (poliovirus 1 [1]): 48.00%

SMILES: O=C(O)c1ccccc1NC(=S)Nc1ccccc1 [Example 3]
- Results from one-step virus growth cycle experiments, PFU/ml (poliovirus 1 [1]): 5.9×10^7 PFU/ml
- Results from one-step virus growth cycle experiments, % of inhibition (poliovirus 1 [1]): 95.09%

SMILES: O=C(O)c1ccc(NC(=S)Nc2ccccc2)cc1O [Example 4, N-phenyl-N'-4-carboxy-5-hydroxyphenylthiourea]
- teratogenic effect (pregnant female rats): No teratogenic effect
- ED50 [2]: 43.3 mg/kg
- antiviral activity on experimental Coxsackie infections (in words) [2]: marked antiviral activity
- retardation of the course of the infection [2]: 2 to 3 days
- subacute toxicity: changes in general state, behaviour, weight, blood pattern (rats): no changes in the general state and behaviour of the animals, or in their weight, the blood pattern, etc. were observed
- Results from one-step virus growth cycle experiments, PFU/ml (poliovirus 1 [1]): < 1×10^6 PFU/ml
- Results from one-step virus growth cycle experiments, % of inhibition (poliovirus 1 [1]): > 99.92%
- Results from the one-step virus growth cycle experiments, % of inhibition (echovirus 19): above 99%
- LD50 [3]: 734 mg/kg
- LD50 ([4]; ip, intraperitoneal): 550 mg/kg
- LD50 ([4]; sc, subcutaneous): > 1000 mg/kg
- selectivity ratio ([4]; LD50 /ED50, read-out: selectivity index (LD50 /ED50)): ≥ 23

SMILES: Oc1cccc(NC(=S)Nc2ccccc2)c1 [Example 5]
- Results from the gradient plaque-inhibition test (poliovirus 1 [5]): + +
- Results from one-step virus growth cycle experiments, PFU/ml (poliovirus 1 [1]): 7×10^6 PFU/ml
- Results from one-step virus growth cycle experiments, % of inhibition (poliovirus 1 [1]): 99.42%

SMILES: Oc1ccc(NC(=S)Nc2ccccc2)cc1 [Example 6]
- Results from one-step virus growth cycle experiments, PFU/ml (poliovirus 1 [1]): 3.7×10^8 PFU/ml
- Results from one-step virus growth cycle experiments, % of inhibition (poliovirus 1 [1]): 69.17%

SMILES: O=[N+]([O-])c1ccc(O)c(NC(=S)Nc2ccccc2)c1 [Example 7]
- Results from one-step virus growth cycle experiments, PFU/ml (poliovirus 1 [1]): 3.5×10^8 PFU/ml
- Results from one-step virus growth cycle experiments, % of inhibition (poliovirus 1 [1]): 70.83%

SMILES: O=C(O)CCCNC(=S)Nc1ccccc1 [Example 8, γ-phenylthioureidobutyric acid]
- Results from one-step virus growth cycle experiments, PFU/ml (poliovirus 1 [1]): 1.5×10^7 PFU/ml
- Results from the one-step virus growth cycle experiments, PFU/ml (echovirus 19): 5× 10^6 PFU/ml
- Results from the one-step virus growth cycle experiments, % of inhibition (echovirus 19; listed as 21): 99.81%
- Results from the one-step virus growth cycle experiments, % of inhibition (echovirus 19; listed as μ-phenylthioureidobutyric acid): above 99%
- Results from the one-step virus growth cycle experiments, PFU/ml (coxsackievirus B1): ≤ 1×10^6 PFU/ml

SMILES: Cc1cccc(NC(=S)Nc2ccccc2)c1 [Example 9]
- Results from one-step virus growth cycle experiments, PFU/ml (poliovirus 1 [1]): 1.4×10^7 PFU/ml
- Results from one-step virus growth cycle experiments, % of inhibition (poliovirus 1 [1]): 98.79%

SMILES: CC(=O)c1ccc(NC(=S)Nc2ccccc2)cc1 [Example 10]
- Results from one-step virus growth cycle experiments, PFU/ml (poliovirus 1 [1]): 4.6×10^7 PFU/ml
- Results from one-step virus growth cycle experiments, % of inhibition (poliovirus 1 [1]): 96.17%

SMILES: S=C(Nc1ccccc1)Nc1ccc(Cl)cc1NC(=S)Nc1ccccc1 [Example 11]
- Results from one-step virus growth cycle experiments, PFU/ml (poliovirus 1 [1]): 4.3×10^8 PFU/ml
- Results from one-step virus growth cycle experiments, % of inhibition (poliovirus 1 [1]): 57.00%

SMILES: O=C(O)c1ccc(NC(=S)Nc2ccccc2)cc1O [Example 12]
- Results from the one-step virus growth cycle experiments, PFU/ml (coxsackievirus B1): ≤ 1×10^6 PFU/ml

SMILES: Oc1cccc(NC(=S)Nc2ccccc2)c1 [Example 13]
- Results from the one-step virus growth cycle experiments, PFU/ml (coxsackievirus B1): ≤ 1×10^6 PFU/ml

SMILES: Oc1ccc(NC(=S)Nc2ccccc2)cc1 [Example 14]
- Results from the one-step virus growth cycle experiments, PFU/ml (coxsackievirus B1): < 1×10^6 PFU/ml

SMILES: O=[N+]([O-])c1ccc(O)c(NC(=S)Nc2ccccc2)c1 [Example 15]
- Results from the one-step virus growth cycle experiments, % of inhibition (coxsackievirus B1): 93.87%
- Results from the one-step virus growth cycle experiments, PFU/ml (coxsackievirus B1): 4.6×10^7 PFU/ml

SMILES: O=C(O)c1ccccc1NC(=S)Nc1ccccc1 [Example 17]
- Results from the one-step virus growth cycle experiments, PFU/ml (echovirus 19): 5×10^6 PFU/ml
- Results from the one-step virus growth cycle experiments, % of inhibition (echovirus 19): 99.81%

SMILES: O=C(O)c1ccc(NC(=S)Nc2ccccc2)cc1O [Example 18]
- Results from the one-step virus growth cycle experiments, PFU/ml (echovirus 19): < 1×10^6 PFU/ml
- Results from the one-step virus growth cycle experiments, % of inhibition (echovirus 19): > 99.96%

SMILES: Oc1cccc(NC(=S)Nc2ccccc2)c1 [Example 19]
- Results from the one-step virus growth cycle experiments, PFU/ml (echovirus 19): 2×10^6 PFU/ml
- Results from the one-step virus growth cycle experiments, % of inhibition (echovirus 19): 99.92%

SMILES: O=[N+]([O-])c1ccc(O)c(NC(=S)Nc2ccccc2)c1 [Example 20, N-phenyl-N'-2-hydroxy-5-nitrophenylthiourea]
- Results from the one-step virus growth cycle experiments, PFU/ml (echovirus 19): 5.9×10^7 PFU/ml
- Results from the one-step virus growth cycle experiments, % of inhibition (echovirus 19): 97.73%

SMILES: Oc1cccc(NC(=S)Nc2ccccc2)c1 [Example 22, N-phenyl-N'-3-hydroxyphenylthiourea]
- Results from the one-step virus growth cycle experiments, % of inhibition (FMD virus type C): 97.92%
- Results from the one-step virus growth cycle experiments, PFU/ml (FMD virus type C): 1.5×10^5 PFU/ml
- LD50 [6]: 1000 mg/kg
- ED50 [2]: 86.6 mg/kg
- antiviral activity on experimental Coxsackie infections (in words) [2]: marked antiviral activity
- retardation of the course of the infection [2]: 2 to 3 days
- Results from the one-step virus growth cycle experiments, % of inhibition (echovirus 19): above 99%
- animals in which development of FMD encephalitis is prevented (FMD): 33.3%

SMILES: Oc1ccc(NC(=S)Nc2ccccc2)cc1 [Example 24, N-phenyl-N'-4-hydroxyphenylthiourea]
- Results from the one-step virus growth cycle experiments, % of inhibition (FMD virus type C): 99.65%
- Results from the one-step virus growth cycle experiments, PFU/ml (FMD virus type C): 2.5×10^4 PFU/ml
- reduction of the number of ailing animals compared with the placebo group (FMD virus): reduces the number of ailing animals two to three and a half times

SMILES: O=C(O)c1ccccc1NC(=S)Nc1ccccc1 [N-phenyl-N'-2-carboxyphenylthiourea]
- Results from one-step virus growth cycle experiments, % of inhibition (poliovirus 1 [1]): 95-99%
- Results from the one-step virus growth cycle experiments, % of inhibition (echovirus 19): above 99%

SMILES: Cc1cccc(NC(=S)Nc2ccccc2)c1 [N-phenyl-N'-3-tolylthiourea]
- Results from one-step virus growth cycle experiments, % of inhibition (poliovirus 1 [1]): 95-99%

SMILES: CC(=O)c1ccc(NC(=S)Nc2ccccc2)cc1 [N-phenyl-N'-acetylphenylthiourea]
- Results from one-step virus growth cycle experiments, % of inhibition (poliovirus 1 [1]): 95-99%
